Here are results for three molecules from PubChem BioAssay (NCI).

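Exposure lasted 48 hours, with cells grown in 96-well plates and compounds tested at five concentrations. Here, GI50 denotes the concentration required for 50% inhibition of growth. TGI marks complete inhibition of growth.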 Where only a bound is given, the exact number is not on record here.

Among the test systems are HOP-62 NSCLC; OVCAR-4 ovarian; IGROV1 ovarian; KM12 colon; HS 578T breast; HCT-116 colon; SF-295 CNS; HOP-92 NSCLC; OVCAR-3 ovarian; SK-MEL-2 melanoma.
Test in all cases: NCI-60 cell line screen, 48 h

For the molecule `C/C(=C(/c1ccccc1)c1ccc(OCC(O)CNCCN2CCOCC2)cc1)c1ccccc1` (stereo not drawn), the GI50 was 2.29 µM in the assay on HOP-62 NSCLC; 3.82 µM in the assay on OVCAR-4 ovarian; 3.97 µM in the assay with IGROV1 ovarian; 2.73 µM in the assay on KM12 colon; 1.77 µM in the assay on HS 578T breast; 1.86 µM with HCT-116 colon. The GI50 with SF-295 CNS is 1.92 µM; with HOP-92 NSCLC, 1.5 µM; with OVCAR-3 ovarian, 2.43 µM; in the assay on SK-MEL-2 melanoma it was 2.5 µM. Also, the TGI in the assay with HOP-62 NSCLC is 5.69 µM; in the assay with OVCAR-4 ovarian, 14.4 µM; in the assay on IGROV1 ovarian, 15 µM; in the assay on KM12 colon it was 8.33 µM; in the assay with HS 578T breast it was 4.1 µM; in the assay on HCT-116 colon it was 4.02 µM. The TGI in the assay on SF-295 CNS is 3.63 µM; in the assay with HOP-92 NSCLC, 4.81 µM; in the assay with OVCAR-3 ovarian, 7.17 µM; with SK-MEL-2 melanoma it was 6.24 µM.

For the molecule `COc1cc(C2=NN(C(C)=O)C(c3cc(OC)c(OC)c(OC)c3)C2)ccc1O` (stereo not drawn), the GI50 with HOP-62 NSCLC was 0.571 µM; in the assay with OVCAR-4 ovarian, 0.532 µM; with IGROV1 ovarian it was 0.584 µM; in the assay on KM12 colon it was 0.32 µM; in the assay on HS 578T breast, 0.275 µM; in the assay on HCT-116 colon it was 0.385 µM. For the same molecule, the GI50 is 0.216 µM in the assay with SF-295 CNS, 67 µM with HOP-92 NSCLC and 0.289 µM in the assay on OVCAR-3 ovarian. Further, the TGI in the assay on HOP-62 NSCLC is over 100 µM; with OVCAR-4 ovarian it was over 100 µM; in the assay on IGROV1 ovarian, over 100 µM; with KM12 colon, over 100 µM; in the assay with HCT-116 colon, over 73.6 µM; with SF-295 CNS it was over 100 µM. The TGI in the assay with HOP-92 NSCLC is over 100 µM; in the assay with OVCAR-3 ovarian it was 5.21 µM; in the assay on SK-MEL-2 melanoma, over 100 µM.

As to `COc1cc(OCc2cccc(-c3ccccc3)c2C)cc(OC)c1CN1CCCCC1C(=O)NCCOCCOCCN` (stereo not drawn), the GI50 is 2.3 µM with HOP-62 NSCLC; 2.33 µM in the assay with OVCAR-4 ovarian; 3.06 µM in the assay with IGROV1 ovarian; 3.2 µM in the assay on KM12 colon; 1.93 µM in the assay on HS 578T breast; 2.04 µM in the assay with HCT-116 colon. The GI50 in the assay on SF-295 CNS is 2.03 µM; with HOP-92 NSCLC it was 1.57 µM; in the assay with OVCAR-3 ovarian, 2.11 µM; in the assay with SK-MEL-2 melanoma it was 1.96 µM. The TGI in the assay on HOP-62 NSCLC is 6.06 µM; in the assay with OVCAR-4 ovarian it was 6.48 µM; with IGROV1 ovarian, 12.1 µM; with KM12 colon, 11.4 µM; in the assay on HS 578T breast, 4.56 µM; in the assay with HCT-116 colon, 4.64 µM. Besides, the TGI in the assay with SF-295 CNS amounted to 4.23 µM; with HOP-92 NSCLC, 5.45 µM; with OVCAR-3 ovarian, 5.03 µM; with SK-MEL-2 melanoma, 4.03 µM.
